Measured values published in patent publication US12091696B2, “O-methyltransferase protein with highly specific catalytic function for multiple bias parent nuclei and encoding gene and use thereof” (INSTITUTE OF CHINESE MATERIA MEDICA CHINA ACADEMY OF …, priority 2023, dated 2024).

Experiments:
[1] = tested on: NnOMT6N323A; assay: In vitro enzymatic activity test of NnOMT6N323A (O-methylation of benzylisoquinoline substrates, UPLC-QTOF-MS/MS); format: biochemical, Nelumbo nucifera; settings: for catalytic (O-methylation) activity of NnOMT6N323A on substrate, in words / conversion rate (O-methylation of substrate by NnOMT6N323A): pH 8.0, 37° C., 12 h, 100 μM substrate, 200 μM SAM, 50 μg purified protein
Protocol: (§1) An in vitro enzymatic activity reaction was conducted at a pH value of 8.0 and 37° C. for 12 h in a 100 μL system containing 50 mM of a potassium phosphate buffer, 100 μM of a substrate, 200 μM of a SAM donor, and 50 μg of the purified protein. 100 μL of methanol was added to terminate the above reaction, the protein was centrifuged at 12,000×g for 30 min in a centrifuge, and a resulting supernatant was passed through a 0.22 μm microporous membrane and injected into UPLC-QTOF-MS/MS for detection. A sample prepared in a same way with boiled purified protein was served as a negative control.
The NnOMT6N323A was studied for substrate promiscuity with 15 benzylisoquinoline compounds (norcoclaurine (1), coclaurine (2), N-methylcoclaurine (3), norarmepavine (4), armepavine (5), lotusine (6), asimilobine (7), N-methlyasimilobine (8), lirinidine (9), liensinine (10), isoliensinine (11), neferine (12), scoulerine (13), tetrahydrocolumbamine (14), and jatrorrhizine (15)).
The chromatographic conditions were as follows: a chromatographic column was an ACQUITY UPLC CSH C18 column (2.1 mm×50 mm, 1.7 μm). A mobile phase A was 0.1% formic acid water, and a mobile phase B was acetonitrile; gradient elution was conducted, including: 0-0.5 min, 2% B; 0.5-1 min, 2%-5% B; 1-5 min, 5%-9% B; […], 9%-10% B; […], 10%-15% B; 16-20 min, 15%-45% B; 20-22 min, 45% B-100% B. A sample injection volume was 2 μL, a column temperature was 35° C., and a flow rate was 0.3 mL/min.
The mass spectrometry conditions were as follows: an ion source was a Dusal ESI source; the substrate was detected in a positive ion (PI) mode with a scan range of m/z 100-1000. […] MS/MS analysis was conducted with a collision energy of 30 eV and a collision energy voltage of 20 V.

[2] = tested on: wild-type O-methyltransferase; assay: In vitro enzymatic activity of wild-type O-methyltransferase (comparison with mutant); format: biochemical, Nelumbo nucifera; settings: same method as Example 1
Protocol: as §1
A specific experimental method was the same as that in Example 1.

Molecule	catalytic (O-methylation) activity of NnOMT6N323A on substrate, in words [1]	conversion rate (O-methylation of substrate by NnOMT6N323A) [1]	catalytic activity of wild-type O-methyltransferase on substrate, in words [2]	enhancement of catalytic activity of mutant NnOMT6N323A compared with wild-type O-methyltransferase ([1]; mutant versus wild-type, FIG. 4)
lirinidine [Compound 9]	no catalytic activity	–	–	–
N-methlyasimilobine [Compound 8]	could catalyze the O-methylation	55.4%	–	–
COc1cc2c(cc1O)[C@@H]1Cc3ccc(OC)c(OC)c3CN1CC2 [Compound 14, tetrahydrocolumbamine]	could catalyze the O-methylation	about 42.3%	no catalytic activity	–
COc1cc2c(cc1OC)[C@@H]1Cc3ccc(OC)c(O)c3CN1CC2 [Compound 13a, tetrahydropalmatrubine]	further catalyzed	–	–	–
COc1cc2c(cc1O)[C@@H]1Cc3ccc(OC)c(O)c3CN1CC2 [Compound 13, scoulerine]	could catalyze the O-methylation	–	–	–
COc1cc2c(cc1O)[C@@H](Cc1ccc(O)cc1)N(C)CC2 [Compound 3, N-methylcoclaurine]	could catalyze the O-methylation	47.6%	–	–
COc1cc2c(cc1O)C(Cc1ccc(O)cc1)NCC2 (stereo not drawn) [Compound 2, coclaurine]	could catalyze the O-methylation	34.8%	–	about two times
asimilobine [Compound 7]	could catalyze the O-methylation	60.8%	–	–
COc1cc2c(cc1O)CC[n+]1cc3c(OC)c(OC)ccc3cc1-2 [Compound 15, jatrorrhizine]	no activity	–	–	–
Oc1ccc(CC2NCCc3cc(O)c(O)cc32)cc1 (stereo not drawn) [Compound 1, norcoclaurine]	could catalyze the O-methylation	63.7%	–	–
